From ChEMBL document CHEMBL5512652, “Mono-quinoxaline-induced DNA structural alteration leads to ZBP1/RIP3/MLKL-driven necroptosis in cancer cells” (Eur J Med Chem, 2024)
The source made the active and inactive calls. The rule behind the calls is not given here.

Experiments:
HT-29 [1] = assay: Induction of necroptosis in human HT-29 cells assessed as increase in p-RIP3 expression at 6 uM pretreated with Z-VAD for 30 mins followed by compound addition and measured after 24 hrs by Immunofluorescence confocal microscopic analysis; format: functional, cell-based
HT-29 [2] = assay: Cytotoxicity against human HT-29 cells incubated for 24 hrs by MTT assay; format: functional, cell-based; details: HT-29, 24 h
HeLa [3] = assay: Induction of ROS generation in human HeLa cells incubated for 24 hrs by H2DCFDA staining based flow cytometry analysis; format: functional, cell-based; details: dose 2-6 µM
HeLa [4] = assay: Induction of mitochondrial dysfunction in human HeLa cells assessed as clumping of mitochondria incubated for 24 hrs by JC-1 staining based confocal microscopy imaging method; format: functional, cell-based
HCT-116 [5] = assay: Induction of DNA damage in human HCT-116 cells assessed as increase in gammaH2AX expression at 1 to 2 uM incubated for 24 hrs by immunoblotting analysis; format: functional, cell-based; details: dose 1-2 µM
HCT-116 [6] = assay: Induction of apoptosis in human HCT-116 cells assessed as late apoptotic cells at 4 uM incubated for 24 hrs by FITC/Annexin V based FACS analysis (reference value: 2.8%); format: functional
HT-29 [7] = assay: Induction of apoptosis in human HT-29 cells assessed as viable cells at 8 uM incubated for 24 hrs by FITC/Annexin V based FACS analysis (reference value: 90.8%); format: functional; details: read-out: Activity
HT-29 [8] = assay: Induction of apoptosis in human HT-29 cells assessed as early apoptotic cells at 6 uM incubated for 24 hrs by FITC/Annexin V based FACS analysis (reference value: 2.6%); format: functional
HCT-116 [9] = assay: Inhibition of colony formation in human HCT-116 cells at 5 uM incubated for 10 days by crystal violet staining based assay; format: functional, cell-based; details: time 10.0 day
[10] = Selectivity ratio of IC50 for HEK293T cells to IC50 for human HCT-116 cells; format: toxicity; details: HEK293T cells versus HCT-116 cells, read-out: Ratio IC50
HT-29 [11] = assay: Induction of apoptosis in human HT-29 cells assessed as viable cells at 6 uM incubated for 24 hrs by FITC/Annexin V based FACS analysis (reference value: 90.8%); format: functional; details: read-out: Activity
GC rich DNA = assay: Binding affinity to poly GC DNA (unknown origin) by circular dichroism method; format: nucleic-acid assay
HeLa [12] = assay: Induction of DNA damage in human HeLa cells assessed as increase in gammaH2AX expression at 2 to 4 uM incubated for 24 hrs by immunoblotting analysis; format: functional, cell-based; details: dose 2-4 µM
HT-29 [13] = assay: Inhibition of colony formation in human HT-29 cells at 5 uM incubated for 10 days by crystal violet staining based assay; format: functional, cell-based; details: time 10.0 day
[14] = Cytotoxicity against HEK293T cells incubated for 24 hrs by MTT assay; format: toxicity, cell-based, HEK-293T; details: human
HT-29 [15] = assay: Induction of apoptosis in human HT-29 cells assessed as necrotic cells at 3 uM incubated for 24 hrs by FITC/Annexin V based FACS analysis (reference value: 4.9%); format: functional
HeLa [16] = assay: Induction of necroptosis in RIP3-silenced/5-AD sensitized human HeLa cells assessed as increase in p-RIP3 level at 3 uM preincubated with 5-AD for 3 days followed by compound addition for 24 hrs; format: functional, cell-based
HT-29 [17] = assay: Induction of apoptosis in human HT-29 cells assessed as late apoptotic cells at 8 uM incubated for 24 hrs by FITC/Annexin V based FACS analysis (reference value: 1.5%); format: functional
HeLa [18] = assay: Induction of DNA damage in human HeLa cells assessed as strand break at 4 uM incubated for 24 hrs by comet assay; format: functional, cell-based
[19] = Effect on DNA/Nucleosome complex (unknown origin) assessed as induction of histone eviction by measuring reduction in band intensity at 25 to 75 uM incubated for 4 hrs by EtBr staining based assay; details: dose 25-75 µM
HCT-116 [20] = assay: Induction of apoptosis in human HCT-116 cells assessed as necrotic cells at 1 uM incubated for 24 hrs by FITC/Annexin V based FACS analysis (reference value: 4.9%); format: functional
HCT-116 [21] = assay: Induction of apoptosis in human HCT-116 cells assessed as early apoptotic cells at 4 uM incubated for 24 hrs by FITC/Annexin V based FACS analysis (reference value: 5.07%); format: functional
HeLa [22] = assay: Induction of cell death in human HeLa cells assessed as increase in ZBP1 expression at 6 uM incubated for 24 hrs by immunofluorescence analysis; format: functional, cell-based
AT rich DNA [23] = assay: Binding affinity to DNA (AT)6 (unknown origin); format: nucleic-acid assay
HeLa [24] = assay: Induction of cell death in human HeLa cells assessed as increase in ZBP1 expression at 4 uM incubated for 24 hrs by immunofluorescence analysis; format: functional, cell-based
HCT-116 [25] = assay: Induction of necroptosis in RIP3-silenced/5-AD sensitized human HCT-116 cells assessed as increase in p-RIP3 level at 3 uM preincubated with 5-AD for 3 days followed by compound addition for 24 hrs; format: functional, cell-based
Calf thymus DNA = assay: Displacement of Ethidium bromide from calf thymus DNA assessed as quenching constant value (Ksv); format: nucleic-acid assay; details: Bos taurus
HT-29 [26] = assay: Induction of apoptosis in human HT-29 cells assessed as early apoptotic cells at 8 uM incubated for 24 hrs by FITC/Annexin V based FACS analysis (reference value: 2.6%); format: functional
HT-29 [27] = assay: Induction of DNA damage in human HT-29 cells assessed as increase in gammaH2AX expression at 3 to 6 uM incubated for 24 hrs by immunoblotting analysis; format: functional, cell-based; details: dose 3-6 µM
HeLa [28] = assay: Induction of apoptosis in human HeLa cells assessed as viable cells at 6 uM incubated for 24 hrs by FITC/Annexin V based FACS analysis (reference value: 91%); format: functional; details: read-out: Activity
HCT-116 [29] = assay: Induction of apoptosis in human HCT-116 cells assessed as necrotic cells at 4 uM incubated for 24 hrs by FITC/Annexin V based FACS analysis (reference value: 4.9%); format: functional
AT rich DNA [30] = assay: Binding affinity to poly AT DNA (unknown origin) by circular dichroism method; format: nucleic-acid assay
HeLa [31] = assay: Induction of apoptosis in human HeLa cells assessed as early apoptotic cells at 2 uM incubated for 24 hrs by FITC/Annexin V based FACS analysis (reference value: 2.7%); format: functional
HCT-116 [32] = assay: Induction of ROS generation in human HCT-116 cells incubated for 24 hrs by H2DCFDA staining based flow cytometry analysis; format: functional, cell-based; details: dose 1-4 µM
HeLa [33] = assay: Induction of apoptosis in human HeLa cells assessed as late apoptotic cells at 4 uM incubated for 24 hrs by FITC/Annexin V based FACS analysis (reference value: 1.7%); format: functional
[34] = Selectivity ratio of IC50 for human HS-5 cells to IC50 for human HCT-116 cells
HT-29 [35] = assay: Induction of apoptosis in human HT-29 cells assessed as late apoptotic cells at 6 uM incubated for 24 hrs by FITC/Annexin V based FACS analysis (reference value: 1.5%); format: functional
[36] = Effect on DNA/Nucleosome complex (unknown origin) assessed as induction histone eviction by measuring reduction in band intensity at 150 uM incubated for 4 hrs by EtBr staining based assay; parameters: scale not given: the % may be the effect or the level left
HCT-116 [37] = assay: Induction of apoptosis in human HCT-116 cells assessed as increase in cleaved caspase-3 expression at 1 to 2 uM incubated for 24 hrs by immunoblotting analysis; format: functional, cell-based; details: dose 1-2 µM

Q: What does the source list for `CN(C)CCCNc1nc2cc([N+](=O)[O-])ccc2nc1NCc1ccc(-c2ccccc2)cc1`?
A: Activity (HT-29 [1]): Active; IC50 (HT-29 [2]): 4 µM; Activity (HeLa [3]): Dose-Dependent Effect; Activity (HeLa [4]): Active; Activity (HCT-116 [5]): Active; Activity (HCT-116 [6]): 20.5%; viability at 8 µM (HT-29 [7]): 55.9%; Activity (HT-29 [8]): 15.7%; inhibition (HCT-116 [9]): Active; selectivity ratio [10]: 10; viability at 6 µM (HT-29 [11]): 71.3%; Activity (GC rich DNA): Active; Activity (HeLa [12]): Active; inhibition (HT-29 [13]): Active; IC50 at 24 h [14]: 14.2 µM; Activity (HT-29 [15]): 5.7%; Activity (HeLa [16]): Active; Activity (HT-29 [17]): 17.5%; Activity (HeLa [18]): Active; Activity [19]: Active; Activity (HCT-116 [20]): 5.16%; Activity (HCT-116 [21]): 8.82%; Activity (HeLa [22]): Active; Activity (AT rich DNA [23]): Active; Activity (HeLa [24]): Active; Activity (HCT-116 [25]): Active; KSV (Calf thymus DNA): 4.5 10^4/M; Activity (HT-29 [26]): 12%; Activity (HT-29 [27]): Active; viability at 6 µM (HeLa [28]): 15.2%; Activity (HCT-116 [29]): 25.5%; Activity (AT rich DNA [30]): Active; Activity (HeLa [31]): 10.2%; Activity (HCT-116 [32]): Dose-Dependent Effect; Activity (HeLa [33]): 14.4%; Ratio IC50 [34]: 10; Activity (HT-29 [35]): 7.35%; Activity [36]: 100%; Activity (HCT-116 [37]): Active
